In patent publication US5496849A, “Sulfonic acid derivative and its pharmaceutical application” (Toray Industries, Inc., priority 1992, dated 1996):

Key:
[1] = system: platelet aggregation induced by U-46619 in human platelet-rich plasma (PRP); assay: Platelet aggregation inhibitory action (U-46619-induced, human platelet-rich plasma); format: cell-based; settings: compounds added 1 minute before U-46619, turbidity
Experimental: Human whole blood drawn from the median cubital vein was centrifuged for 10 minutes at 800 rpm, and the upper portion was collected as platelet-rich plasma (PRP). […] The size of the aggregates were measured with a platelet aggregate measuring instrument (Hematracer 1, Nikko Bioscience) as the change in turbidity. The compounds were added 1 minute before addition of U-46619, and the concentration which inhibits aggregation by 50% was calculated as the IC50 value.

[2] = system: vasoconstriction of rat thoracic aorta induced by U-46619; assay: Vasoconstriction inhibitory action (U-46619-induced constriction of thoracic aorta spiral specimens); parameters: species or system long Evans rats; settings: 10 min, pH 7.4, minimum concentration at which inhibition rate was 50% or more, 10 ng/ml U-46619, drug applied 10 minutes, 37° C., read-out: Vasoconstriction Inhibitory Action MIC
Experimental: Male and female long Evans rats having body weights of 150-200 g were used in this example. After sacrificing the animals by decapitation, the thoracic aorta was removed, and the outer membrane was peeled off to obtain I2 spiral specimens roughly 2 cm in length. Blood vessel specimens were warmed to 37° C. and preserved in a Magnus tube containing 10 ml of a nutrient solution aerated with 95% oxygen+5% carbon dioxide gas. The nutrient solution contained 118.3 mmol of NaCl, 4.7 mmol of KCl, […] of CaCl, 1.2 mmol of MgSO4, 1.2 mmol of KH2 PO4, 25 mmol of NaCHO3, 11.1 mmol of D-glucose, 0.03 mmol of EDTA along with 1 μg/ml each of atropin, phentolamine, mepiramine, cyproheptadine, propranolol and indometacin, and was adjusted to a pH of 7.4. Vasoconstriction was measured using an isometric transducer (Harward UF-1 Transducer and Sekonic SS-250F Graph recorder). An equilibration time of 3 hours was provided after the blood vessels were installed on the Magnus device, and fresh nutrient solution was replaced every 30 minutes during that time. […] of U-46619, having TXA2 action (to reach roughly 75% of maximum constriction), was applied for 30 minutes to constrict the vessels. The maximum stable constriction during this time was taken to be the control constriction (C1). Next, the blood vessels were washed several times with nutrient solution to remove the drug. After allowing a recovery period of 30 minutes, the test drugs were applied at various concentrations for 10 minutes followed by again constricting the vessels by applying 10 ng/ml of U-46619 for 30 minutes. The maximum stable constriction during this time was taken to be the constriction of the test drugs (C2). The inhibition rates of vasoconstriction induced by the drugs and U-46619 were determined according to the following formula, and the minimum concentration at which the inhibition rate was 50% or more was determined as the minimum inhibitory concentration (MIC).
((C1-C2)/C1)×100=Inhibition rate (%)

Thromboxane A2 Receptor = target: T1, Thromboxane A2 Receptor (Oryctolagus cuniculus, UniProt Q6WQI8); assay: Receptor binding experiment: Thromboxane A2 Receptor Binding Test ([3H]SQ29548, washed platelets); parameters: species or system New Zealand White rabbits; settings: rabbit washed platelets; [3H]SQ29548 3 nM; 60 minutes at 25° C.; read-out: Binding Inhibitory Action IC50 (converted)
T1 sequence (Q6WQI8 1-233): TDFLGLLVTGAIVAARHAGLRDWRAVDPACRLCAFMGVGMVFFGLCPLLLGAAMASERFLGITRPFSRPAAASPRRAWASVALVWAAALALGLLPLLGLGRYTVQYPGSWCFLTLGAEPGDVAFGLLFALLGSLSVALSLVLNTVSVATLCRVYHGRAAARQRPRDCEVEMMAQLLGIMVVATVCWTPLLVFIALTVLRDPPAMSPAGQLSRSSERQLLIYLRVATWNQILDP
Experimental: Whole blood from New Zealand White rabbits was collected into a container containing ACD solution (1.175 g of sodium citrate, 0.685 g of citric acid, and 1 g of dextrose dissolved in 50 ml of distilled water) followed by centrifuging at room temperature for 10 minutes at 180 ×g to obtain platelet-rich plasma. Moreover, this platelet-rich plasma was further centrifuged at room temperature and 2800 ×g to result in sedimentation of the platelets. The platelets were resuspended in 50 mM Tris hydrochloric acid buffer solution (pH 7.2, containing […]) and again centrifuged at 4° C. for 15 minutes at 2800 ×g. This procedure was repeated twice to prepare the washed platelets, and adjusted to a final concentration of 10 mg/ml (wet weight). Tritium-labelled SQ29548 ([3H]SQ29548) was used for the TXA2 ligand. In an antagonism experiment, 20 μl of [3H]SQ29548 at a final concentration of 3 nM were added to 500 μl of a 10 mg/ml platelet suspension, together with adding 2.6 μl of the test drug dissolved in a suitable buffer. After incubating for 60 minutes at 25° C., the mixture was filtered over a glass filter using the Celherbster method, the filter was washed with 50 mM Tris hydrochloric acid buffer solution (3 ×4 ml), and radioactivity was measured with a scintillation counter to determine the amount of [3H]SQ29548 bound to the platelets. In addition, in a saturation test, 20 μl of [3H]SQ29548 were added to a final concentration of 0.1-50 nM followed by the addition of 2.6 μl of BM13505 at a final concentration of 1 μM in order to examine non-specific binding and carry out a binding experiment. The concentration of the test drug which inhibited binding of [3H]SQ29548 by 50% was determined as the IC50 value.

| Compound | IC50 [1] | minimal effective concentration [2] | IC50 (Thromboxane A2 Receptor) |
| --- | --- | --- | --- |
| O=C(O)COc1cccc2c1O[C@H]1C[C@@H](O)[C@H](NS(=O)(=O)c3ccc(Cl)cc3)[C@@H]21 (racemic) [(55), (1RS, 2RS, 3aSR, 8bRS)-1-(p-chlorobenzenesulfonamido)-2-hydroxy-2,3,3a,8b-tetrahydro-1H-cyclopenta[b]benzofuran-5-yloxy acetic acid] | 17 nM | 0.1 µg/mL | 3.18 nM |
| O=C(O)COc1cccc2c1O[C@H]1C[C@@H](O)[C@H](NS(=O)(=O)c3cccc(Cl)c3)[C@@H]21 (racemic) [(57), (1RS, 2RS, 3aSR, 8bRS)-1-(m-chlorobenzenesulfonamido)-2-hydroxy-2,3,3a,8b-tetrahydro-1H-cyclopenta[b]benzofuran-5-yloxyacetic acid] | 41 nM | 0.01 µg/mL | 22.7 nM |
| O=C(O)COc1cccc2c1O[C@H]1C[C@@H](O)[C@H](NS(=O)(=O)c3ccc(Br)cc3)[C@@H]21 (racemic) [(61), (1RS, 2RS, 3aSR, 8bRS)-1-(p-bromobenzenesulfonamido)-2-hydroxy-2,3,3a,8b-tetrahydro-1H-cyclopenta[b]benzofuran-5-yloxyacetic acid] | 44 nM | 0.03 µg/mL | 2.06 nM |
| O=C(O)COc1cccc2c1O[C@H]1C[C@@H](O)[C@H](NS(=O)(=O)c3ccc(I)cc3)[C@@H]21 (racemic) [(63), (1RS, 2RS, 3aSR, 8bRS)-1-(p-iodobenzenesulfonamido)-2-hydroxy-2,3,3a,8b-tetrahydro-1H-cyclopenta[b]benzofuran-5-yloxyacetic acid] | 58 nM | 0.01 µg/mL | 22.6 nM |
| O=C(O)COc1cccc2c1O[C@H]1C[C@@H](O)[C@H](NS(=O)(=O)c3ccc([N+](=O)[O-])cc3)[C@@H]21 (racemic) [(68), (1RS, 2RS, 3aSR, 8bRS)-1-(p-nitrobenzenesulfonamido)-2-hydroxy-2,3,3a,8b-tetrahydro-1H-cyclopenta[b]benzofuran-5-yloxyacetic acid] | 140 nM | 0.1 µg/mL | 910 nM |
| O=C(O)COc1cccc2c1O[C@H]1C[C@@H](O)[C@H](NS(=O)(=O)c3ccc(F)cc3F)[C@@H]21 (racemic) [(70), (1RS, 2RS, 3aSR, 8bRS)-1-(2,4-difluorobenzenesulfonamido)-2-hydroxy-2,3,3a,8b-tetrahydro-1H-cyclopenta[b]benzofuran-5-yloxyacetic acid] | 29 nM | 0.03 µg/mL | 49.8 nM |
| O=C(O)COc1cccc2c1O[C@H]1C[C@@H](O)[C@H](NS(=O)(=O)c3ccc(Cl)c(Cl)c3)[C@@H]21 (racemic) [(72), (1RS, 2RS, 3aSR, 8bRS)-1-(3,4-dichlorobenzenesulfonamido)-2-hydroxy-2,3,3a,8b-tetrahydro-1H-cyclopenta[b]benzofuran-5-yloxyacetic acid] | 120 nM | 0.03 µg/mL | 25.3 nM |
| O=C(O)COc1cccc2c1O[C@H]1CC[C@H](NS(=O)(=O)c3ccccc3)[C@@H]21 (racemic) [(90), (1SR, 3aSR, 8bRS)-1-benzenesulfonamido-2,3,3a,8b-tetrahydro-1H-cyclopenta[b]benzofuran-5-yloxyacetic acid] | 99 nM | 0.003 µg/mL | 8.47 nM |
| CO[C@@H]1C[C@@H]2Oc3c(OCC(=O)O)cccc3[C@@H]2[C@H]1NS(=O)(=O)c1ccccc1 (racemic) [(92), (1RS, 2RS, 3aSR, 8bRS)-1-benzenesulfonamido-2-methoxy-2,3,3a,8b-tetrahydro-1H-cyclopenta[b]benzofuran-5-yloxyacetic acid] | 100 nM | 0.1 µg/mL | 57.2 nM |
| O=C(O)COc1cccc2c1O[C@H]1CC[C@@H](NS(=O)(=O)c3ccccc3)[C@@H]21 (racemic) [(94), (1RS, 3aSR, 8bRS)-1-benzenesulfonamido-2,3,3a,8b-tetrahydro-1H-cyclopenta[b]benzofuran-5-yloxyacetic acid] | 68 nM | 0.1 µg/mL | 16.7 nM |
| CCOC(=O)COc1cccc2c1O[C@H]1C[C@@H](O)[C@H](NS(=O)(=O)c3ccccc3)[C@@H]21 (racemic) [(102), (1RS, 2RS, 3aSR, 8bRS)-1-benzenesulfonamido-2-hydroxy2,3,3a,8b-tetrahydro-1H-cyclopenta[b]benzofuran-5-yloxyacetic acid ethyl ester] | 220 nM | 0.03 µg/mL | 415 nM |
| O=C(O)COc1cccc2c1O[C@H]1CC[C@H](OS(=O)(=O)c3ccccc3)[C@@H]21 (racemic) [(121), (1SR, 3aSR, 8bSR)-1-(phenylsulfonyloxy)-2,3,3a,8b-tetrahydro-1H-cyclopenta[b]benzofuran-5-yloxyacetic acid] | 130 nM | 0.003 µg/mL | 1.28 nM |
| Cc1ccc(S(=O)(=O)N[C@@H]2[C@H]3c4cccc(OCC(=O)O)c4O[C@H]3C[C@H]2O)cc1 (relative stereo) [(49), (1RS, 2RS, 3aSR, 8bRS)-1-(p-toluenesulfonamido)-2-hydroxy-2,3,3a,8b-tetrahydro-1H-cyclopenta[b]benzofuran-5-yloxyacetatic acid] | 22 nM | 0.01 µg/mL | 8.82 nM |
| O=C(O)COc1cccc2c1O[C@H]1C[C@@H](O)[C@H](NS(=O)(=O)c3ccccc3Cl)[C@@H]21 (relative stereo) [(59), (1RS, 2RS, 3aSR, 8bRS)-1-(o-chlorobenzenesulfonamido)-2-hydroxy-2,3,3a,8b-tetrahydro-1-cyclopenta[b]benzofuran-5-yloxyacetic acid] | 69 nM | 0.1 µg/mL | 22.7 nM |
| O=C(O)/C=C/c1cccc2c1O[C@H]1C[C@@H](O)[C@H](NS(=O)(=O)c3ccccc3)[C@@H]21 (relative stereo) [(88), (1RS, 2RS, 3aSR, 8bRS)-1-benzenesulfonamido-2-hydroxy-2,3,3a,8b-tetrahydro-1H-cyclopenta[b]benzofuran-5-(E)-acrylic acid] | 450 nM | 0.3 µg/mL | 648 nM |
| O=C(O)COc1ccc(CCNS(=O)(=O)c2ccccc2)cc1 [Control, 4-(2-(benzenesulfonamido)ethyl) phenoxyacetic acid, reference compound] | 5000 nM | 0.3 µg/mL | 4170 nM |
